Assays:
Format in all cases: in vivo
[1] = test system: rice (Oryza sativa); experiment: Test B flooded paddy test; conditions: for Plant response rating, Flood, Rice: 250 g ai/ha, flooded paddy test, visual rating on 0 to 100 scale (0 no effect, 100 complete control) after 13 to 15 days; for Plant response rating, Rice: Flood (flooded paddy test), 13 to 15 days; for Rice plant response rating: Flood, 31 g ai/ha, scale 0 to 100 (0 no effect, 100 complete control)
In short: (§1)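 Flooded-pot test: water raised to 3 cm above soil when treating, compound put in the water, level unchanged thereafter. Plants were at 2 leaves. Readout after 13 to 15 days, visual, relative to controls; 0 signifies no effect and 100 complete control.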

[2] = test system: barnyardgrass (Echinochloa crus-galli); experiment: Test B flooded paddy test; conditions: for Plant response rating, Flood, Barnyardgrass: 250 g ai/ha, flooded paddy test, visual rating on 0 to 100 scale (0 no effect, 100 complete control) after 13 to 15 days; for Plant response rating, Barnyardgrass: Flood (flooded paddy test), 13 to 15 days; for Barnyardgrass plant response rating: Flood, 31 g ai/ha, scale 0 to 100 (0 no effect, 100 complete control)
In short: as §1

[3] = test system: umbrella sedge (Cyperus difformis); experiment: Test B flooded paddy test; conditions: for Plant response rating, Flood, Sedge, Umbrella: 250 g ai/ha, flooded paddy test, visual rating on 0 to 100 scale (0 no effect, 100 complete control) after 13 to 15 days; for Plant response rating, Sedge, Umbrella: Flood (flooded paddy test), 13 to 15 days; for Sedge, Umbrella plant response rating: Flood, 31 g ai/ha, scale 0 to 100 (0 no effect, 100 complete control)
In short: as §1

[4] = test system: ducksalad (Heteranthera limosa); experiment: Test B flooded paddy test; conditions: for Plant response rating, Flood, Ducksalad: 250 g ai/ha, flooded paddy test, visual rating on 0 to 100 scale (0 no effect, 100 complete control) after 13 to 15 days; for Plant response rating, Ducksalad: Flood (flooded paddy test), 13 to 15 days; for Ducksalad plant response rating: Flood, 31 g ai/ha, scale 0 to 100 (0 no effect, 100 complete control)
In short: as §1

[5] = test system: morningglory (Ipomoea spp.); experiment: Test A pre-/postemergence plant response; conditions: for Morningglory plant response rating: visual injury, 0 to 100 scale (0 no effect, 100 complete control), approx. ten days
In short: (§2)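 Visually rated 0–100 injury (100 = complete control) versus untreated plants, ~10 days in greenhouse. Application pre- (soil spray, loam/sand) and postemergence (2–10 cm, 1–2 leaf stage), same timepoint.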

[6] = test system: wheat (Triticum aestivum); experiment: Test A pre-/postemergence plant response; conditions: for Wheat plant response rating: visual injury, 0 to 100 scale (0 no effect, 100 complete control), approx. ten days
In short: as §2

[7] = test system: corn (Zea mays); experiment: Test A pre-/postemergence plant response; conditions: for Corn plant response rating: visual injury, 0 to 100 scale (0 no effect, 100 complete control), approx. ten days
In short: as §2

[8] = test system: barnyardgrass (Echinochloa crus-galli); experiment: Test A pre-/postemergence plant response; conditions: for Barnyardgrass plant response rating: visual injury, 0 to 100 scale (0 no effect, 100 complete control), approx. ten days
In short: as §2

[9] = test system: large crabgrass (Digitaria sanguinalis); experiment: Test A pre-/postemergence plant response; conditions: for Crabgrass, Large plant response rating: visual injury, 0 to 100 scale (0 no effect, 100 complete control), approx. ten days
In short: as §2

[10] = test system: giant foxtail (Setaria faberii); experiment: Test A pre-/postemergence plant response; conditions: for Foxtail, Giant plant response rating: visual injury, 0 to 100 scale (0 no effect, 100 complete control), approx. ten days
In short: as §2

[11] = test system: pigweed (Amaranthus retroflexus); experiment: Test A pre-/postemergence plant response; conditions: for Pigweed plant response rating: visual injury, 0 to 100 scale (0 no effect, 100 complete control), approx. ten days
In short: as §2

[12] = test system: velvetleaf (Abutilon theophrasti); experiment: Test A pre-/postemergence plant response; conditions: for Velvetleaf plant response rating: visual injury, 0 to 100 scale (0 no effect, 100 complete control), approx. ten days
In short: as §2

[13] = 62 g ai/ha, scale of 0 to 100 where 0 is no effect and 100 is complete control
[14] = 125 g ai/ha, scale 0 to 100, 0 is no effect, 100 is complete control
[15] = Postemergence, 125 g ai/ha, 0 to 100 scale where 0 is no effect and 100 is complete control
[16] = Preemergence, 125 g ai/ha, 0 to 100 scale, 0 = no effect, 100 = complete control
[17] = Preemergence, 500 g ai/ha, 0 to 100 scale, 0 = no effect, 100 = complete control

Cc1ccc(Cl)cc1-n1c(-c2cc(F)cc(F)c2)ncc(C(=O)C2=C(O)CCCC2=O)c1=O [Compound 179]
20: Plant response rating, Barnyardgrass [2, 14] | Plant response rating, Crabgrass, Large [9, 16]
30: Plant response rating, Flood, Barnyardgrass [2]
65: Plant response rating, Flood, Rice [1]
95: Plant response rating, Flood, Sedge, Umbrella [3] | Plant response rating, Ducksalad [4, 14]
85: Plant response rating, Sedge, Umbrella [3, 14]
80: Plant response rating, Sedge, Umbrella [3, 13] | Wheat plant response rating ([6]; Postemergence, 500 g ai/ha) | Corn plant response rating ([7]; Postemergence, 500 g ai/ha)
100: Plant response rating, Flood, Ducksalad [4] | Morningglory plant response rating ([5]; Postemergence, 500 g ai/ha) | Crabgrass, Large plant response rating ([9]; Postemergence, 500 g ai/ha) | Plant response rating, Crabgrass, Large [9, 17] | Pigweed plant response rating ([11]; Postemergence, 500 g ai/ha) | Plant response rating, Velvetleaf [12, 15] | Velvetleaf plant response rating ([12]; Postemergence, 500 g ai/ha) | Plant response rating, Velvetleaf [12, 17]
90: Plant response rating, Ducksalad [4, 13] | Ducksalad plant response rating [4] | Barnyardgrass plant response rating ([8]; Postemergence, 500 g ai/ha) | Foxtail, Giant plant response rating ([10]; Postemergence, 500 g ai/ha) | Plant response rating, Foxtail, Giant [10, 17] | Plant response rating, Pigweed [11, 15] | Plant response rating, Pigweed [11, 17]
0: Plant response rating, Rice [1, 13] | Rice plant response rating [1] | Barnyardgrass plant response rating [2] | Plant response rating, Morningglory [5, 16] | Plant response rating, Wheat [6, 16] | Plant response rating, Corn [7, 16] | Plant response rating, Corn [7, 17] | Plant response rating, Barnyardgrass [8, 16]
60: Plant response rating, Morningglory [5, 15] | Plant response rating, Wheat [6, 17] | Plant response rating, Barnyardgrass [8, 15] | Plant response rating, Crabgrass, Large [9, 15]
25: Plant response rating, Rice [1, 14]
70: Plant response rating, Barnyardgrass [8, 17]
50: Plant response rating, Pigweed [11, 16] | Plant response rating, Velvetleaf [12, 16]
10: Plant response rating, Barnyardgrass [2, 13] | Plant response rating, Corn [7, 15] | Plant response rating, Foxtail, Giant [10, 16]
40: Sedge, Umbrella plant response rating [3] | Plant response rating, Morningglory [5, 17] | Plant response rating, Wheat [6, 15] | Plant response rating, Foxtail, Giant [10, 15]

Cc1cccc(-c2ncc(C(=O)C3=C(O)CCCC3=O)c(=O)n2C2CCCCC2)c1 [Compound 185]
30: Plant response rating, Morningglory [5, 17] | Plant response rating, Crabgrass, Large [9, 17]
75: Plant response rating, Sedge, Umbrella [3, 13] | Plant response rating, Flood, Ducksalad [4] | Plant response rating, Ducksalad [4, 14] | Ducksalad plant response rating [4]
100: Plant response rating, Morningglory [5, 15] | Morningglory plant response rating ([5]; Postemergence, 500 g ai/ha) | Pigweed plant response rating ([11]; Postemergence, 500 g ai/ha) | Velvetleaf plant response rating ([12]; Postemergence, 500 g ai/ha)
70: Plant response rating, Ducksalad [4, 13] | Plant response rating, Barnyardgrass [8, 15] | Crabgrass, Large plant response rating ([9]; Postemergence, 500 g ai/ha) | Plant response rating, Pigweed [11, 17]
60: Plant response rating, Flood, Sedge, Umbrella [3]
80: Foxtail, Giant plant response rating ([10]; Postemergence, 500 g ai/ha)
90: Barnyardgrass plant response rating ([8]; Postemergence, 500 g ai/ha) | Plant response rating, Pigweed [11, 15] | Plant response rating, Velvetleaf [12, 15]
50: Corn plant response rating ([7]; Postemergence, 500 g ai/ha) | Plant response rating, Barnyardgrass [8, 17] | Plant response rating, Crabgrass, Large [9, 15] | Plant response rating, Foxtail, Giant [10, 15] | Plant response rating, Foxtail, Giant [10, 17] | Plant response rating, Velvetleaf [12, 17]
65: Plant response rating, Sedge, Umbrella [3, 14] | Sedge, Umbrella plant response rating [3]
0: Plant response rating, Flood, Rice [1] | Plant response rating, Rice [1, 13] | Plant response rating, Rice [1, 14] | Rice plant response rating [1] | Plant response rating, Flood, Barnyardgrass [2] | Plant response rating, Barnyardgrass [2, 13] | Plant response rating, Barnyardgrass [2, 14] | Barnyardgrass plant response rating [2] | Plant response rating, Wheat [6, 15] | Wheat plant response rating ([6]; Postemergence, 500 g ai/ha) | Plant response rating, Wheat [6, 16] | Plant response rating, Wheat [6, 17] | Plant response rating, Corn [7, 15] | Plant response rating, Corn [7, 16] | Plant response rating, Corn [7, 17] | Plant response rating, Barnyardgrass [8, 16] | Plant response rating, Crabgrass, Large [9, 16] | Plant response rating, Foxtail, Giant [10, 16] | Plant response rating, Pigweed [11, 16] | Plant response rating, Velvetleaf [12, 16]

CCc1cccc(-c2ncc(C(=O)C3=C(O)CCCC3=O)c(=O)n2C2CCCCC2)c1 [Compound 194]
15: Plant response rating, Flood, Barnyardgrass [2]
0: Plant response rating, Flood, Rice [1] | Plant response rating, Rice [1, 13] | Plant response rating, Rice [1, 14] | Rice plant response rating [1] | Plant response rating, Barnyardgrass [2, 13] | Barnyardgrass plant response rating [2] | Plant response rating, Sedge, Umbrella [3, 13] | Plant response rating, Sedge, Umbrella [3, 14] | Sedge, Umbrella plant response rating [3] | Plant response rating, Wheat [6, 15] | Wheat plant response rating ([6]; Postemergence, 500 g ai/ha) | Plant response rating, Wheat [6, 16] | Plant response rating, Wheat [6, 17] | Plant response rating, Corn [7, 15] | Plant response rating, Corn [7, 16] | Plant response rating, Corn [7, 17] | Plant response rating, Barnyardgrass [8, 16]
65: Plant response rating, Flood, Sedge, Umbrella [3]
50: Plant response rating, Ducksalad [4, 13] | Plant response rating, Ducksalad [4, 14] | Foxtail, Giant plant response rating ([10]; Postemergence, 500 g ai/ha) | Plant response rating, Pigweed [11, 16]
30: Plant response rating, Foxtail, Giant [10, 15] | Plant response rating, Velvetleaf [12, 16]
80: Plant response rating, Flood, Ducksalad [4]
60: Plant response rating, Crabgrass, Large [9, 15]
70: Plant response rating, Velvetleaf [12, 17]
90: Plant response rating, Morningglory [5, 15] | Plant response rating, Barnyardgrass [8, 15] | Crabgrass, Large plant response rating ([9]; Postemergence, 500 g ai/ha)
10: Plant response rating, Barnyardgrass [2, 14] | Corn plant response rating ([7]; Postemergence, 500 g ai/ha)
100: Morningglory plant response rating ([5]; Postemergence, 500 g ai/ha) | Barnyardgrass plant response rating ([8]; Postemergence, 500 g ai/ha) | Plant response rating, Pigweed [11, 15] | Pigweed plant response rating ([11]; Postemergence, 500 g ai/ha) | Plant response rating, Pigweed [11, 17] | Plant response rating, Velvetleaf [12, 15] | Velvetleaf plant response rating ([12]; Postemergence, 500 g ai/ha)
40: Ducksalad plant response rating [4] | Plant response rating, Barnyardgrass [8, 17] | Plant response rating, Crabgrass, Large [9, 17]
20: Plant response rating, Morningglory [5, 17] | Plant response rating, Crabgrass, Large [9, 16]

O=C1CCCC(O)=C1C(=O)c1cnc(-c2cccc(C(F)(F)F)c2)n(C2CCCCC2)c1=O [Compound 195]
90: Barnyardgrass plant response rating ([8]; Postemergence, 500 g ai/ha) | Crabgrass, Large plant response rating ([9]; Postemergence, 500 g ai/ha) | Plant response rating, Pigweed [11, 15]
20: Plant response rating, Flood, Barnyardgrass [2] | Plant response rating, Wheat [6, 17] | Corn plant response rating ([7]; Postemergence, 500 g ai/ha)
50: Plant response rating, Sedge, Umbrella [3, 14] | Plant response rating, Ducksalad [4, 13] | Plant response rating, Crabgrass, Large [9, 17] | Plant response rating, Velvetleaf [12, 17]
65: Plant response rating, Flood, Sedge, Umbrella [3]
85: Plant response rating, Flood, Ducksalad [4]
30: Plant response rating, Foxtail, Giant [10, 15] | Plant response rating, Foxtail, Giant [10, 17]
60: Plant response rating, Morningglory [5, 15]
10: Plant response rating, Barnyardgrass [8, 17] | Plant response rating, Pigweed [11, 17]
15: Plant response rating, Flood, Rice [1]
100: Pigweed plant response rating ([11]; Postemergence, 500 g ai/ha) | Plant response rating, Velvetleaf [12, 15] | Velvetleaf plant response rating ([12]; Postemergence, 500 g ai/ha)
70: Plant response rating, Ducksalad [4, 14] | Plant response rating, Barnyardgrass [8, 15] | Foxtail, Giant plant response rating ([10]; Postemergence, 500 g ai/ha)
40: Plant response rating, Crabgrass, Large [9, 15]
0: Plant response rating, Rice [1, 13] | Plant response rating, Rice [1, 14] | Rice plant response rating [1] | Plant response rating, Barnyardgrass [2, 13] | Plant response rating, Barnyardgrass [2, 14] | Barnyardgrass plant response rating [2] | Plant response rating, Sedge, Umbrella [3, 13] | Sedge, Umbrella plant response rating [3] | Ducksalad plant response rating [4] | Plant response rating, Morningglory [5, 16] | Plant response rating, Morningglory [5, 17] | Plant response rating, Wheat [6, 15] | Wheat plant response rating ([6]; Postemergence, 500 g ai/ha) | Plant response rating, Wheat [6, 16] | Plant response rating, Corn [7, 15] | Plant response rating, Corn [7, 16] | Plant response rating, Corn [7, 17] | Plant response rating, Barnyardgrass [8, 16] | Plant response rating, Crabgrass, Large [9, 16] | Plant response rating, Foxtail, Giant [10, 16] | Plant response rating, Pigweed [11, 16] | Plant response rating, Velvetleaf [12, 16]

— patent US8952024B2, “Herbicidal pyrimidone derivatives” (E I du Pont de Nemours and Company, priority 2009, dated 2015)
